Experimental data from patent US20100267561A1, “HERBICIDAL PYRIDAZINONE DERIVATIVES” (priority 2007, published 2010).

How the values were obtained:
Format in all cases: in vivo
[1] = test system: surinam grass (Brachiaria decumbens); experiment: Test E pre-/postemergence plant response; details: scale 0 to 100
From the text: (§1) Seeds of plant species selected from bermudagrass (Cynodon dactylon), Surinam grass (Brachiaria decumbens), large crabgrass (Digitaria sanguinalis), green foxtail (Setaria viridis), goosegrass (Eleusine indica), johnsongrass (Sorghum halepense), kochia (Kochia scoparia), pitted morningglory (Ipomoea lacunosa), purple nutsedge (Cyperus rotundus), common ragweed (Ambrosia elation), black mustard (Brassica nigra), guineagrass (Panicum maximum), dallisgrass (Paspalum dilatatum), barnyardgrass (Echinochloa crus-galli), southern (S.) sandbur (Cenchrus echinatus), common sowthistle (Sonchus oleraceous), prickly sida (Sida spinosa), Italian ryegrass (Lolium multiflorum), common purslane (Portulaca oleracea), broadleaf signalgrass (Brachiaria platyphylla), common groundsel (Senecio vulgaris), common chickweed (Stellaria media), Virginia (V.) dayflower (Commelina virginica), tropical (T.) spiderwort (Commelina benghalensis), annual bluegrass (Poa annua), naked crabgrass (Digitaria nuda), itchgrass (Rottboellia cochinchinensis), quackgrass (Elytrigia repens), Canada horseweed (Conyza canadensis), field bindweed (Convolvulus arvensis), spanishneedles (Bidens bipinnata), common mallow (Malva sylvestris) and Russian thistle (Salsola kali) were planted and treated preemergence with test chemicals formulated in a non-phytotoxic solvent mixture which included a surfactant. At the same time, plants selected from these weed species were treated with postemergence applications of some of the test chemicals formulated in the same manner. Plants ranged in height from 2 to 18 cm (1- to 4-leaf stage) for postemergence treatments.
(§2) Treated plants and controls were maintained in a greenhouse for 14 to 21 days, after which time all species were compared to controls and visually evaluated. Plant response ratings, summarized in Table E, are based on a scale of 0 to 100 where 0 is no effect and 100 is complete control. A dash (-) response means no test result.

[2] = test system: johnsongrass (Sorghum halepense); experiment: Test E pre-/postemergence plant response; details: scale 0 to 100
From the text: as §1, §2

[3] = test system: large crabgrass (Digitaria sanguinalis); experiment: Test E pre-/postemergence plant response; details: scale 0 to 100
From the text: as §1, §2

[4] = test system: bermudagrass (Cynodon dactylon); experiment: Test E pre-/postemergence plant response; details: scale 0 to 100
From the text: as §1, §2

[5] = test system: naked crabgrass (Digitaria nuda); experiment: Test E pre-/postemergence plant response; details: scale 0 to 100
From the text: as §1, §2

[6] = test system: broadleaf signalgrass (Brachiaria platyphylla); experiment: Test E pre-/postemergence plant response; details: scale 0 to 100
From the text: as §1, §2

[7] = test system: purple nutsedge (Cyperus rotundus); experiment: Test E pre-/postemergence plant response; details: scale 0 to 100
From the text: as §1, §2

[8] = test system: itchgrass (Rottboellia cochinchinensis); experiment: Test E pre-/postemergence plant response; details: scale 0 to 100
From the text: as §1, §2

[9] = test system: southern (S.) sandbur (Cenchrus echinatus); experiment: Test E pre-/postemergence plant response; details: scale 0 to 100
From the text: as §1, §2

[10] = test system: canarygrass (Phalaris minor); experiment: Test C pre-/postemergence plant response; details: Preemergence
In short: (§3)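 Plant response was judged by eye against untreated controls following 15 to 25 days in a controlled growth environment, using 0 for no effect and 100 for complete control. Treatments were made both preemergence and postemergence, the latter on plants of 1- to 4-leaf stage.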

[11] = test system: windgrass (Apera spica-venti); experiment: Test C pre-/postemergence plant response; details: Preemergence
In short: as §3

[12] = test system: annual bluegrass (Poa annua); experiment: Test C pre-/postemergence plant response; details: Preemergence
In short: as §3

wild oat (Avena fatua) = experiment: Test C pre-/postemergence plant response; details: Preemergence
In short: as §3

[13] = 8 g ai/ha, scale 0 to 100 (0 no effect, 100 complete control)
[14] = 16 g ai/ha, scale 0 to 100 (0 no effect, 100 complete control)
[15] = 31 g ai/ha, scale 0 to 100 (0 no effect, 100 complete control)
[16] = 62 g ai/ha, scale 0 to 100, 0 no effect, 100 complete control

Cc1cc(-c2ccc(Cl)cc2)nn1-c1c(OS(=O)(=O)c2ccccc2)cnn(C)c1=O [Compound 35]
Plant response rating, Surinam Grass ([1]; 16 g ai/ha, Preemergence): 95 | Plant response rating, Surinam Grass ([1]; 31 g ai/ha, Preemergence): 100 | Plant response rating, Surinam Grass ([1]; 62 g ai/ha, Preemergence): 100 | Plant response rating, Surinam Grass ([1]; Postemergence, 8 g ai/ha): 70 | Plant response rating, Surinam Grass ([1]; Postemergence, 16 g ai/ha): 75 | Plant response rating, Surinam Grass ([1]; Postemergence, 31 g ai/ha): 80 | Plant response rating, Surinam Grass ([1]; Postemergence, 62 g ai/ha): 90 | Plant response rating, Johnsongrass ([2]; 16 g ai/ha, Preemergence): 75 | Plant response rating, Johnsongrass ([2]; 31 g ai/ha, Preemergence): 80 | Plant response rating, Johnsongrass ([2]; 62 g ai/ha, Preemergence): 90 | Plant response rating, Johnsongrass ([2]; Postemergence, 8 g ai/ha): 40 | Plant response rating, Johnsongrass ([2]; Postemergence, 16 g ai/ha): 50 | Plant response rating, Johnsongrass ([2]; Postemergence, 31 g ai/ha): 70 | Plant response rating, Johnsongrass ([2]; Postemergence, 62 g ai/ha): 98 | Plant response rating, Crabgrass, Large ([3]; 8 g ai/ha, Preemergence): 20 | Plant response rating, Crabgrass, Large ([3]; 16 g ai/ha, Preemergence): 20 | Plant response rating, Crabgrass, Large ([3]; 31 g ai/ha, Preemergence): 95 | Plant response rating, Crabgrass, Large ([3]; 62 g ai/ha, Preemergence): 100 | Plant response rating, Crabgrass, Large ([3]; Postemergence, 8 g ai/ha): 50 | Plant response rating, Crabgrass, Large ([3]; Postemergence, 16 g ai/ha): 60 | Plant response rating, Crabgrass, Large ([3]; Postemergence, 31 g ai/ha): 75 | Plant response rating, Crabgrass, Large ([3]; Postemergence, 62 g ai/ha): 80 | Plant response rating, Bermudagrass ([4]; 8 g ai/ha, Preemergence): 60 | Plant response rating, Bermudagrass ([4]; 16 g ai/ha, Preemergence): 80 | Plant response rating, Bermudagrass ([4]; 31 g ai/ha, Preemergence): 98 | Plant response rating, Bermudagrass ([4]; 62 g ai/ha, Preemergence): 100 | Plant response rating, Bermudagrass ([4]; Postemergence, 8 g ai/ha): 35 | Plant response rating, Bermudagrass ([4]; Postemergence, 16 g ai/ha): 65 | Plant response rating, Bermudagrass ([4]; Postemergence, 31 g ai/ha): 80 | Plant response rating, Bermudagrass ([4]; Postemergence, 62 g ai/ha): 90 | Plant response rating, Crabgrass, Naked ([5]; 8 g ai/ha, Preemergence): 75 | Plant response rating, Crabgrass, Naked ([5]; 16 g ai/ha, Preemergence): 98 | Plant response rating, Crabgrass, Naked ([5]; 31 g ai/ha, Preemergence): 100 | Plant response rating, Crabgrass, Naked ([5]; 62 g ai/ha, Preemergence): 100 | Plant response rating, Crabgrass, Naked ([5]; Postemergence, 8 g ai/ha): 50 | Plant response rating, Crabgrass, Naked ([5]; Postemergence, 16 g ai/ha): 50 | Plant response rating, Crabgrass, Naked ([5]; Postemergence, 31 g ai/ha): 95 | Plant response rating, Crabgrass, Naked ([5]; Postemergence, 62 g ai/ha): 95 | Plant response rating, Signalgrass ([6]; 16 g ai/ha, Preemergence): 80 | Plant response rating, Signalgrass ([6]; 31 g ai/ha, Preemergence): 100 | Plant response rating, Signalgrass ([6]; 62 g ai/ha, Preemergence): 100 | Plant response rating, Signalgrass ([6]; Postemergence, 8 g ai/ha): 60 | Plant response rating, Signalgrass ([6]; Postemergence, 16 g ai/ha): 70 | Plant response rating, Signalgrass ([6]; Postemergence, 31 g ai/ha): 75 | Plant response rating, Signalgrass ([6]; Postemergence, 62 g ai/ha): 100 | Plant response rating, Nutsedge, Purple ([7]; 16 g ai/ha, Preemergence): 0 | Plant response rating, Nutsedge, Purple ([7]; 62 g ai/ha, Preemergence): 0 | Plant response rating, Nutsedge, Purple ([7]; Postemergence, 8 g ai/ha): 0 | Plant response rating, Nutsedge, Purple ([7]; Postemergence, 16 g ai/ha): 0 | Plant response rating, Nutsedge, Purple ([7]; Postemergence, 31 g ai/ha): 0 | Plant response rating, Nutsedge, Purple ([7]; Postemergence, 62 g ai/ha): 0 | Plant response rating, Itchgrass ([8]; 16 g ai/ha, Preemergence): 75 | Plant response rating, Itchgrass ([8]; 31 g ai/ha, Preemergence): 75 | Plant response rating, Itchgrass ([8]; 62 g ai/ha, Preemergence): 75 | Plant response rating, Itchgrass ([8]; Postemergence, 8 g ai/ha): 30 | Plant response rating, Itchgrass ([8]; Postemergence, 16 g ai/ha): 40 | Plant response rating, Itchgrass ([8]; Postemergence, 31 g ai/ha): 70 | Plant response rating, Itchgrass ([8]; Postemergence, 62 g ai/ha): 70 | Plant response rating, Sandbur, S. ([9]; 16 g ai/ha, Preemergence): 75 | Plant response rating, Sandbur, S. ([9]; 31 g ai/ha, Preemergence): 90 | Plant response rating, Sandbur, S. ([9]; 62 g ai/ha, Preemergence): 100 | Plant response rating, Sandbur, S. ([9]; Postemergence, 8 g ai/ha): 40 | Plant response rating, Sandbur, S. ([9]; Postemergence, 16 g ai/ha): 75 | Plant response rating, Sandbur, S. ([9]; Postemergence, 31 g ai/ha): 75 | Plant response rating, Sandbur, S. ([9]; Postemergence, 62 g ai/ha): 75 | Plant response rating, Canarygrass [10, 13]: 0 | Plant response rating, Canarygrass [10, 14]: 0 | Plant response rating, Canarygrass [10, 15]: 50 | Plant response rating, Canarygrass [10, 16]: 90 | Plant response rating, Windgrass [11, 13]: 0 | Plant response rating, Windgrass [11, 15]: 15 | Plant response rating, Windgrass [11, 16]: 80 | Plant response rating, Bluegrass [12, 13]: 0 | Plant response rating, Bluegrass [12, 14]: 0 | Plant response rating, Bluegrass [12, 15]: 0 | Plant response rating, Bluegrass [12, 16]: 0 | Plant response rating, Oat, Wild (wild oat (Avena fatua); [13]): 0 | Plant response rating, Oat, Wild (wild oat (Avena fatua); [14]): 0 | Plant response rating, Oat, Wild (wild oat (Avena fatua); [15]): 30 | Plant response rating, Oat, Wild (wild oat (Avena fatua); [16]): 70
